Measurements from PubChem BioAssay (NCI).
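How tested: cells in 96-well plates exposed to compound for 48 hours at five concentrations. At the TGI there is no net growth.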

Experiments:
Assay in all cases: NCI tumour cell line growth inhibition, 48 h
[1] = tested on: ACHN renal
[2] = tested on: HCT-15 colon
[3] = tested on: IGROV1 ovarian
[4] = tested on: MALME-3M melanoma
[5] = tested on: MDA-N
[6] = tested on: MOLT-4 leukemia
[7] = tested on: NCI/ADR-RES ovarian
[8] = tested on: PC-3 prostate
[9] = tested on: SK-MEL-5 melanoma
[10] = tested on: SK-OV-3 ovarian
[11] = tested on: SR leukemia

| Structure (SMILES) | TGI [1] | TGI [2] | TGI [3] | TGI [4] | TGI [5] | TGI [6] | TGI [7] | TGI [8] | TGI [9] | TGI [10] | TGI [11] |
| --- | --- | --- | --- | --- | --- | --- | --- | --- | --- | --- | --- |
| CCOC(=O)C(Cc1ccc2c(c1)CCC2)(Cc1ccc2c(c1)CCC2)C(=O)OCC | > 100 µM | > 100 µM | > 100 µM | 89.2 µM | > 100 µM | 78.4 µM | > 100 µM | > 100 µM | > 100 µM | > 100 µM | 55.1 µM |
| COc1ccc(C2CCc3nc4nc(N)nc(N)c4cc3C2)cc1 (stereo unspecified) | 22 µM | > 100 µM | 37.9 µM | > 100 µM | > 100 µM | 65.3 µM | > 100 µM | > 100 µM | > 100 µM | 25.3 µM | 67.3 µM |
| CCOC(=O)C(SCCO)C(C(=O)OCC)n1ccc(N)nc1=O (stereo unspecified) | > 100 µM | > 100 µM | > 100 µM | > 100 µM | > 100 µM | > 100 µM | > 100 µM | > 100 µM | > 100 µM | > 100 µM | > 100 µM |
| CCCCCCCCCc1cc(O)c(O)cc1CCCCCCCCC | > 10 µM | > 10 µM | > 10 µM | > 10 µM | > 10 µM | > 10 µM | > 10 µM | > 10 µM | > 10 µM | > 10 µM | > 10 µM |
| COc1cc2c(cc1C)NC(=O)/C2=C/c1c(Cl)[nH]c2cc(C)c(OC)cc12 | 18.4 µM | 17.5 µM | 16.1 µM | 25.4 µM | 8.93 µM | 17.8 µM | 13.5 µM | 21.7 µM | 10.6 µM | 5.56 µM | 12 µM |
| NC(=O)c1cnc2sc3ccccc3n2c1=O | > 100 µM | > 100 µM | > 100 µM | > 100 µM | > 100 µM | > 100 µM | > 100 µM | > 100 µM | > 100 µM | > 100 µM | > 100 µM |
| Cc1nn2c(N)cc(=O)nc2nc1/C=C/c1ccc(N(C)C)cc1 | > 100 µM | > 27.9 µM | > 100 µM | 49.8 µM | > 100 µM | > 100 µM | > 100 µM | > 100 µM | > 100 µM | > 100 µM | > 100 µM |
| COCCc1c(C)c(C#N)c2n(C)c3ccccc3n2c1=O | > 10 µM | > 10 µM | > 10 µM | > 10 µM | > 10 µM | > 10 µM | > 10 µM | > 10 µM | > 10 µM | > 10 µM | > 10 µM |
| NS(=O)(=O)c1ccc(NNC(=O)c2cccc3c(=O)c4ccccc4[nH]c23)cc1 | > 100 µM | > 100 µM | > 100 µM | > 100 µM | > 100 µM | > 100 µM | > 100 µM | > 100 µM | > 100 µM | > 100 µM | > 100 µM |
| CCOC(=O)c1ccc(N=C2SC(=S)N(c3ccc(F)cc3)C2=Nc2ccc(C(=O)OCC)cc2)cc1 | 29.4 µM | 21.4 µM | 30.8 µM | 36.6 µM | 35.4 µM | 35.1 µM | 44.8 µM | 40.6 µM | 25.1 µM | > 100 µM | 29.3 µM |
| CCN(CC)CCN1c2ccccc2Sc2ccc3ccccc3c21 | 29.2 µM | 22.1 µM | 24.5 µM | 32.5 µM | 25.3 µM | 7.66 µM | 25.6 µM | 19.5 µM | 10.2 µM | 29.4 µM | 20.9 µM |
| c1ccc(Cc2cccc3cc(-c4ccc(-c5ccccc5)cc4)[nH]c23)cc1 | > 100 µM | > 100 µM | > 100 µM | 54 µM | > 100 µM | > 100 µM | > 100 µM | > 100 µM | > 100 µM | > 100 µM | 47 µM |
| Clc1cc2nc(C3CCCO3)[nH]c2cc1Cl (stereo unspecified) | > 100 µM | > 100 µM | > 100 µM | > 100 µM | 58 µM | > 100 µM | > 100 µM | > 100 µM | > 100 µM | > 100 µM | > 100 µM |
| CSC1=N/C(=C\c2cccs2)C(=O)N1CN1CCOCC1 | > 100 µM | > 100 µM | > 100 µM | > 100 µM | > 100 µM | > 100 µM | 90.5 µM | > 100 µM | > 100 µM | > 100 µM | > 100 µM |
| CCN(CC)CC(O)c1ccc2ccc3ccccc3c2c1 (stereo unspecified) | 27.3 µM | 33.2 µM | 33 µM | 34 µM | 31 µM | 32.9 µM | 33.6 µM | 30.1 µM | 27.3 µM | 29.5 µM | 24.8 µM |
| O=C1C(NS(=O)(=O)c2ccccc2)=C(n2cnc3ccccc32)C(=O)c2ccccc21 | > 100 µM | > 100 µM | > 100 µM | > 100 µM | > 100 µM | > 100 µM | > 100 µM | > 100 µM | > 100 µM | > 100 µM | > 100 µM |
| CN(Cc1cnc2nc(N)nc(N)c2n1)c1ccc(C(=O)NC(CCS(=O)(=O)O)C(=O)O)cc1 (stereo unspecified) | > 100 µM | > 100 µM | > 100 µM | > 100 µM | > 100 µM | > 100 µM | > 100 µM | > 100 µM | > 100 µM | > 100 µM | > 100 µM |
| CN1CN(c2ccccc2)C2(CCNCC2)C1=O | > 100 µM | > 100 µM | > 100 µM | > 100 µM | > 100 µM | > 100 µM | > 100 µM | > 100 µM | > 100 µM | > 100 µM | > 100 µM |
| CC(C)(C)OC(=O)N1C(C2=COc3ccccc3O2)=COc2ccccc21 | 75.3 µM | > 100 µM | > 100 µM | 58.1 µM | > 100 µM | 54 µM | 82.3 µM | > 100 µM | 64.4 µM | > 100 µM | 53.3 µM |
| COC(=O)C12CCC(C(=O)OC)(Cc3c(c4ccccc4n3S(=O)(=O)c3ccccc3)C1)C2=O (stereo unspecified) | > 100 µM | > 100 µM | > 100 µM | > 100 µM | > 100 µM | > 100 µM | > 100 µM | > 100 µM | > 100 µM | > 100 µM | > 100 µM |
| O=c1oc2ncccc2n1Cc1ccc([N+](=O)[O-])cc1 | > 100 µM | > 100 µM | > 100 µM | > 100 µM | > 100 µM | > 100 µM | > 100 µM | > 100 µM | > 100 µM | > 100 µM | > 100 µM |
| COc1ccc2c(c1)/C(=C(\C(Cl)=C(\Cl)N1CCCCC1)[N+](=O)[O-])N2 | > 100 µM | > 100 µM | > 100 µM | > 100 µM | > 100 µM | > 100 µM | > 100 µM | > 100 µM | > 100 µM | > 100 µM | > 100 µM |
| COc1ccc2c(c1)/C(=C(\C(Cl)=C(Cl)Cl)[N+](=O)[O-])N2 | > 100 µM | > 100 µM | > 100 µM | > 100 µM | > 100 µM | 97.1 µM | > 100 µM | > 100 µM | > 100 µM | > 100 µM | 49.3 µM |
| CCCCC1Cc2cc(O)ccc2-c2n1c1cc(O)ccc1[n+]2C (stereo unspecified) (tested in a mixture with another compound) | 98.7 µM | > 88.3 µM | > 83.8 µM | 73.4 µM | > 100 µM | > 100 µM | > 100 µM | > 100 µM | 22 µM | > 100 µM | > 100 µM |
| O=C(Nc1ccc(Cl)cc1)c1cc(S(=O)(=O)Nc2n[nH]c(=O)[nH]2)c(SSc2cc(Cl)c(C(=O)Nc3ccc(Cl)cc3)cc2S(=O)(=O)Nc2n[nH]c(=O)[nH]2)cc1Cl | > 100 µM | > 100 µM | > 100 µM | > 100 µM | > 100 µM | > 100 µM | > 100 µM | > 100 µM | > 100 µM | > 100 µM | > 100 µM |
| Oc1c(C(O)(c2ccccc2)c2ccc3ccccc3c2O)ccc2ccccc12 | 23.3 µM | 25.9 µM | 24.7 µM | 26.4 µM | 28.5 µM | 5.56 µM | 43.1 µM | 20.7 µM | 18 µM | 38.3 µM | 10.7 µM |
